Laboratory results taken from PubChem BioAssay AID1963833 (Molecular Pharmacology Branch, DTP, NCI, 2024).

Tested on: 883617-216-R-J1-PDC complex spheroid viability
Experiment: Anticancer human tumor 883617-216-R-J1-PDC patient-derived bladder carcinoma cell line growth inhibition [POLQ]
Details: for IC50: curve of first compound; for viability, T/C: stronger effect = lower value; active means viability on the fitted dose curve at most 10% of control; inactive means the rest
Outline: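 PDC + HUVEC + MSC complex spheroids; POLQ inhibitors ± partner drugs; top conc. at/near clinical Cmax, else 10 microM (SN-38 1 microM), half-log dilutions; 37 degrees C, 5% CO2.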

[1] = second compound 0.0316 µM, first compound 0.0316 µM
[2] = second compound 0.0316 µM, first compound 0.1 µM
[3] = second compound 0.0316 µM, first compound 0.316 µM
[4] = second compound 0.0316 µM, first compound 1 µM
[5] = second compound 0.0316 µM, first compound 3.16 µM
[6] = second compound 0.0316 µM, first compound 10 µM
[7] = second compound 0.1 µM, first compound 0.0316 µM
[8] = second compound 0.1 µM, first compound 0.1 µM
[9] = second compound 0.1 µM, first compound 0.316 µM
[10] = second compound 0.1 µM, first compound 1 µM
[11] = second compound 0.1 µM, first compound 3.16 µM
[12] = second compound 0.1 µM, first compound 10 µM
[13] = second compound 0.316 µM, first compound 0.0316 µM
[14] = second compound 0.316 µM, first compound 0.1 µM
[15] = second compound 0.316 µM, first compound 0.316 µM
[16] = second compound 0.316 µM, first compound 1 µM
[17] = second compound 0.316 µM, first compound 3.16 µM
[18] = second compound 0.316 µM, first compound 10 µM
[19] = second compound 1 µM, first compound 0.0316 µM
[20] = second compound 1 µM, first compound 0.1 µM
[21] = second compound 1 µM, first compound 0.316 µM
[22] = second compound 1 µM, first compound 1 µM
[23] = second compound 1 µM, first compound 3.16 µM
[24] = second compound 1 µM, first compound 10 µM
[25] = second compound 3.16 µM, first compound 0.0316 µM
[26] = second compound 3.16 µM, first compound 0.1 µM
[27] = second compound 3.16 µM, first compound 0.316 µM
[28] = second compound 3.16 µM, first compound 1 µM
[29] = second compound 3.16 µM, first compound 3.16 µM
[30] = second compound 3.16 µM, first compound 10 µM
[31] = second compound 10 µM, first compound 0.0316 µM
[32] = second compound 10 µM, first compound 0.1 µM
[33] = second compound 10 µM, first compound 0.316 µM
[34] = second compound 10 µM, first compound 1 µM
[35] = second compound 10 µM, first compound 3.16 µM
[36] = second compound 10 µM, first compound 10 µM
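Further: spheroids exposed to compounds for seven days before readout.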
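Wherever viability, T/C is given: 100% = DMSO vehicle control viability.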

CCc1cc2c(N3CCc4c(cc(Cn5ccnc5)cc4-c4cn(C)nc4C(F)(F)F)C3=O)cc(C)nc2c(OC)n1 + Cc1cccc(N(C)C(=O)C2C(O)CCN2c2nc(C)cc(C(F)(F)F)c2C#N)c1
8.3 µM: IC50 (second compound 0.1 µM)
7.69 µM: IC50 (second compound 1 µM)
inactive: viability, T/C [1] 87.4% | viability, T/C [2] 95.6% | viability, T/C [3] 91.7% | viability, T/C [4] 91.7% | viability, T/C [5] 72.8% | viability, T/C [6] 41.8% | viability, T/C [7] 86.1% | viability, T/C [8] 102% | viability, T/C [9] 94.5% | viability, T/C [10] 97.6% | viability, T/C [11] 72.8% | viability, T/C [12] 45.6% | viability, T/C [13] 81.3% | viability, T/C [14] 89.2% | viability, T/C [15] 98.8% | viability, T/C [16] 83.8% | viability, T/C [17] 69.9% | viability, T/C [18] 53% | viability, T/C [19] 89.1% | viability, T/C [20] 88.3% | viability, T/C [21] 106% | viability, T/C [22] 92.5% | viability, T/C [23] 71.1% | viability, T/C [24] 43.8% | viability, T/C [25] 99.8% | viability, T/C [26] 94.4% | viability, T/C [27] 102% | viability, T/C [28] 84.8% | viability, T/C [29] 74.6% | viability, T/C [30] 58.3% | viability, T/C [31] 107% | viability, T/C [32] 110% | viability, T/C [33] 93% | viability, T/C [34] 95.3% | viability, T/C [35] 69.9% | viability, T/C [36] 45.9%
> 10 µM: IC50 (second compound 0.316 µM) | IC50 (second compound 3.16 µM)
8.25 µM: IC50 (second compound 10 µM)
7.4 µM: IC50 (second compound 0.0316 µM)

CCc1cc2c(N3CCc4c(cc(Cn5ccnc5)cc4-c4cn(C)nc4C(F)(F)F)C3=O)ccnc2c(OC)n1 + Cc1cccc(N(C)C(=O)C2C(O)CCN2c2nc(C)cc(C(F)(F)F)c2C#N)c1
8.04 µM: IC50 (second compound 0.316 µM) | IC50 (second compound 10 µM)
inactive: viability, T/C [1] 91.7% | viability, T/C [2] 103% | viability, T/C [3] 82.1% | viability, T/C [4] 82% | viability, T/C [5] 70% | viability, T/C [6] 53.5% | viability, T/C [7] 93% | viability, T/C [8] 107% | viability, T/C [9] 84.2% | viability, T/C [10] 96.6% | viability, T/C [11] 73.4% | viability, T/C [12] 50.7% | viability, T/C [13] 102% | viability, T/C [14] 104% | viability, T/C [15] 101% | viability, T/C [16] 98% | viability, T/C [17] 76.6% | viability, T/C [18] 43.7% | viability, T/C [19] 98.4% | viability, T/C [20] 101% | viability, T/C [21] 87.8% | viability, T/C [22] 94.4% | viability, T/C [23] 68.2% | viability, T/C [24] 61.1% | viability, T/C [25] 99.6% | viability, T/C [26] 103% | viability, T/C [27] 87.7% | viability, T/C [28] 86.9% | viability, T/C [29] 66.1% | viability, T/C [30] 47% | viability, T/C [31] 115% | viability, T/C [32] 104% | viability, T/C [33] 88.3% | viability, T/C [34] 92.9% | viability, T/C [35] 76.6% | viability, T/C [36] 42.6%
8.36 µM: IC50 (second compound 3.16 µM)
> 10 µM: IC50 (second compound 0.0316 µM) | IC50 (second compound 0.1 µM) | IC50 (second compound 1 µM)

COc1cc2cc(C(=O)CCC(=O)O)sc2cc1OC + Cc1cccc(N(C)C(=O)C2C(O)CCN2c2nc(C)cc(C(F)(F)F)c2C#N)c1
inactive: viability, T/C [1] 99.1% | viability, T/C [2] 101% | viability, T/C [3] 109% | viability, T/C [4] 106% | viability, T/C [5] 101% | viability, T/C [6] 115% | viability, T/C [7] 98.3% | viability, T/C [8] 107% | viability, T/C [9] 111% | viability, T/C [10] 87.8% | viability, T/C [11] 95.6% | viability, T/C [12] 102% | viability, T/C [13] 115% | viability, T/C [14] 114% | viability, T/C [15] 89.5% | viability, T/C [16] 100% | viability, T/C [17] 95.9% | viability, T/C [18] 102% | viability, T/C [19] 91.7% | viability, T/C [20] 98.5% | viability, T/C [21] 90.2% | viability, T/C [22] 118% | viability, T/C [23] 92.8% | viability, T/C [24] 102% | viability, T/C [25] 94.9% | viability, T/C [26] 115% | viability, T/C [27] 116% | viability, T/C [28] 112% | viability, T/C [29] 112% | viability, T/C [30] 106% | viability, T/C [31] 121% | viability, T/C [32] 108% | viability, T/C [33] 122% | viability, T/C [34] 116% | viability, T/C [35] 119% | viability, T/C [36] 117%
> 10 µM: IC50 (second compound 0.0316 µM) | IC50 (second compound 0.1 µM) | IC50 (second compound 0.316 µM) | IC50 (second compound 1 µM) | IC50 (second compound 3.16 µM) | IC50 (second compound 10 µM)

COc1ccc([C@@H](O)c2cc(-c3ncnc4cc(N5CCOCC5)ccc34)c(F)cc2Cl)nn1 + Cc1cccc(N(C)C(=O)C2C(O)CCN2c2nc(C)cc(C(F)(F)F)c2C#N)c1
2.53 µM: IC50 (second compound 1 µM)
2.68 µM: IC50 (second compound 0.0316 µM)
2.21 µM: IC50 (second compound 0.1 µM)
inactive: viability, T/C [1] 90.4% | viability, T/C [2] 105% | viability, T/C [3] 76% | viability, T/C [4] 75.5% | viability, T/C [5] 42.4% | viability, T/C [6] 36.9% | viability, T/C [7] 98.3% | viability, T/C [8] 84% | viability, T/C [9] 85.8% | viability, T/C [10] 67.9% | viability, T/C [11] 41% | viability, T/C [12] 31.4% | viability, T/C [13] 99% | viability, T/C [14] 101% | viability, T/C [15] 86.3% | viability, T/C [16] 71.6% | viability, T/C [17] 43.5% | viability, T/C [18] 33.4% | viability, T/C [19] 100% | viability, T/C [20] 98.3% | viability, T/C [21] 81.9% | viability, T/C [22] 63.4% | viability, T/C [23] 48.4% | viability, T/C [24] 32.8% | viability, T/C [25] 107% | viability, T/C [26] 99.8% | viability, T/C [27] 90.4% | viability, T/C [28] 61.4% | viability, T/C [29] 49.7% | viability, T/C [30] 33.8% | viability, T/C [31] 117% | viability, T/C [32] 92.5% | viability, T/C [33] 90.5% | viability, T/C [34] 65% | viability, T/C [35] 52.3% | viability, T/C [36] 35.6%
2.51 µM: IC50 (second compound 0.316 µM)
2.48 µM: IC50 (second compound 3.16 µM)
3.57 µM: IC50 (second compound 10 µM)
